In patent US10597370B2, “2-(benzothiazol-2-yl)-2-cyano-acetamide derivatives and their use as endothelial lipase inhibitors” (BRISTOL-MYERS SQUIBB COMPANY, priority 2016, dated 2020):

Target: T1, Endothelial lipase (EL) (Homo sapiens, UniProt Q9Y5X9)
T1 construct: transformed by RAGE technology (Athersys) to overexpress endogenous EL; endogenous in cells; the conditioned medium served as the enzyme source
T1 sequence (Q9Y5X9 21-500): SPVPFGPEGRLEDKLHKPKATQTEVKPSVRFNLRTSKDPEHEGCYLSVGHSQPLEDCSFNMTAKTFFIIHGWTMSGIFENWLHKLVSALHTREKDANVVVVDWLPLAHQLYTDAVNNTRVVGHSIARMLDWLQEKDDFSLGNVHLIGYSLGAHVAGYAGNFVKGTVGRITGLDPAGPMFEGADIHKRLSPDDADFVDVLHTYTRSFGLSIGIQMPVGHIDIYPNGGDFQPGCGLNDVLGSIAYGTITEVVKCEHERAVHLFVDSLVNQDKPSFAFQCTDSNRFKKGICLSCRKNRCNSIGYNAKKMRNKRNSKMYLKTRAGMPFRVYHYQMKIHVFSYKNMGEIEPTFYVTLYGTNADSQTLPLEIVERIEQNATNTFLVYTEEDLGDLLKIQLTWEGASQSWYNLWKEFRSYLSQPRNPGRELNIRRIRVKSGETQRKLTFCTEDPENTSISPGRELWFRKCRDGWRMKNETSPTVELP
Experiment: Endothelial lipase (EL) enzymatic assay with fluorescent substrate A10070 in DMPG vesicles
Assay type: biochemical
Conditions: conditioned media from HT-1080 cells overexpressing endogenous EL; 20 min preincubation at 37° C.
Procedure: Endothelial lipase activity was measured using a fluorescent substrate, A10070, (Invitrogen, CA) doped into an artificial vesicle containing DMPG (Avanti Polar Lipids) as the excipient. Vesicles were prepared by combining 285 μL of 1 mM DMPG in a 1:1 mixture of MeOH and CHCl3 with 15 μL of 1 mM A10070 in a 1:1 mixture of MeOH and CHCl3. The mixture was dried under nitrogen and resuspended in 150 μL of 50 mM HEPES pH 8.0 buffer containing 100 mM NaCl and 0.2 mM EDTA. The sample was allowed to sit at rt for 15 min and then was sonicated 3×4 mins on ice with a Branson Sonicator using duty cycle 1. This preparation provides vesicles with a mole fraction of 0.05 for the FRET substrate.
The enzymatic assay was measured using white, opaque 96-well half area plates. Each well contained 60 μL of assay buffer (50 mM HEPES pH 8.0, 50 mM NaCl and 1 mM CaCl2) and 2 ul of a DMSO solution containing compound of interest. Conditioned media obtained from HT-1080 cells, which were transformed by RAGE technology (Athersys) to overexpress endogenous EL, was added and the reaction was allowed to incubate for 20 min at 37° C. with gentle agitation. The reaction was started by the addition of 20 μL of a 1:4 dilution of vesicles. The final total reaction volume was 100 μL. The reaction rates were measured on a Gemini plate reader with an excitation wavelength of 488 nm and an emission of 530 nm. Readings were taken every 20 seconds for 10 min with agitation between each reading. The slope of the linear portion of the readout was used to calculate the rate of the reaction.

SMILES | IC50
N#CC(C(=O)NCC(=O)NC1CC1)c1nc2ccc(-c3cccc(C(N)=O)c3)cc2s1 (stereo not drawn) [Example 9, 3-{2-[cyano ({[(cyclopropyl-carbamoyl)methyl]carbamoyl})methyl]-1,3-benzothiazol-6-yl} benzamide] | 399 nM
N#CC(C(=O)NCC(=O)NC1CC1)c1nc2ccc(-c3ccc(C(=O)N4CCOCC4)cc3)cc2s1 (stereo not drawn) [Example 14, 2-cyano-N-(2-(cyclopropylamino)-2-oxoethyl)-2-(6-(4-(morpholine-4-carbonyl)phenyl)benzo[d]thiazol-2-yl)acetamide] | 62 nM
CN(C)C(=O)c1cccc(-c2ccc3nc(C(C#N)C(=O)NCC(=O)NC4CC4)sc3c2)c1 (stereo not drawn) [Example 2, 3-{2-[cyano ({[(cyclopropyl-carbamoyl)methyl]carbamoyl})methyl]-1,3-benzothiazol-6-yl}-N,N-dimethyl-benzamide] | 398 nM
Cn1ccc(-c2ccc3nc(C(C#N)C(=O)NCC(=O)NC4CC4)sc3c2)cc1=O (stereo not drawn) [Example 4, 2-cyano-N-[(cyclopropyl-carbamoyl)methyl]-2-[6-(1-methyl-2-oxo-1,2-dihydropyridin-4-yl)-1,3-benzothiazol-2-yl] acetamide] | > 10000 nM
CN(C)C(=O)c1ccc(-c2ccc3nc(C(C#N)C(=O)NCC(=O)NC4CC4)sc3c2)cc1F (stereo not drawn) [Example 3, 4-{2-[cyano ({[(cyclopropyl-carbamoyl)methyl]carbamoyl})methyl]-1,3-benzothiazol-6-yl}-2-fluoro-N,N-dimethyl-benzamide] | 238 nM
COCCNC(=O)c1ccc(-c2cnc3nc(C(C#N)C(=O)NCC(=O)NC4CC4)sc3c2)cc1 (stereo not drawn) [Example 25, 4-{2-[cyano({[(cyclopropyl-carbamoyl)methyl]carbamoyl})methyl]-[1,3]thiazolo[4,5-b]pyridin-6-yl}-N-(2-methoxyethyl) benzamide] | 40 nM
N#CC(C(=O)NCC(=O)N1CCCC1)c1nc2ccc(-c3ccccc3)cc2s1 (stereo not drawn) [Example 18, 2-cyano-N-[2-oxo-2-(pyrrolidin-1-yl)ethyl]-2-(6-pheny1-1,3-benzothiazol-2-yl)acetamide] | 1320 nM
N#CC(C(=O)NCC(=O)NC1COC1)c1nc2ccc(-c3ccc(F)nc3)cc2s1 (stereo not drawn) [Example 17, 2-cyano-2-[6-(6-fluoropyridin-3-yl)-1,3-benzothiazol-2-yl]-N-{[(oxetan-3-yl)carbamoyl]methyl} acetamide] | 67 nM
CN1CCN(C(=O)c2ccc(-c3ccc4nc(C(C#N)C(=O)NCC(=O)NC5CC5)sc4c3)cc2)CC1 (stereo not drawn) [Example 20, 2-cyano-N-[(cyclopropyl-carbamoyl)methyl]-2-{6-[4-(4-methyl-piperazine-1-carbonyl)phenyl]-1,3-benzothiazol-2-yl} acetamide] | 130 nM
N#CC(C(=O)NCC(=O)NC1CC1)c1nc2ccc(-c3ccc4c(c3)C(=O)NC4)cc2s1 (stereo not drawn) [Example 6, 2-cyano-N-[(cyclopropyl-carbamoyl)methyl]-2-[6-(3-oxo-2,3-dihydro-1H-isoindol-5-yl)-1,3-benzothiazol-2-yl] acetamide] | 259 nM
CN1CCN(C(=O)c2ccc(-c3cnc4nc(C(C#N)C(=O)NCC(=O)NC5CC5)sc4c3)cc2)CC1 (stereo not drawn) [Example 23, 2-cyano-N-[(cyclopropyl-carbamoyl)methyl]-2-{6-[4-(4-methylpiperazine-1-carbonyl)phenyl]-[1,3]thiazolo[4,5-6]pyridin-2-yl}acetamide] | 33 nM
CN1CCN(C(=O)c2ccc(-c3ccc4nc(C(C#N)C(=O)NCC(=O)NC5CCC5)sc4c3)cc2)CC1 (stereo not drawn) [Example 19, 2-cyano-N-[(cyclobutyl-carbamoyl)methyl]-2-{6-[4-(4-methyl-piperazine-1-carbonyl)phenyl]-1,3-benzothiazol-2-yl} acetamide] | 3140 nM

Now those with a lower IC50, led by results:

IC50 | SMILES
16 nM | COCCNC(=O)c1ccc(-c2ccc3nc(C(C#N)C(=O)NCC(=O)NC4CC4)sc3c2)cc1 (stereo not drawn) [Example 12, 4-{2-[cyano ({[(cyclopropyl-carbamoyl)methyl]carbamoyl})methyl]-1,3-benzothiazol-6-yl}-N-(2-methoxyethyl) benzamide]
15 nM | N#CC(C(=O)NCC(=O)NC1CC1)c1nc2ccc(-c3ccc(C(=O)N4CCC4)cc3)cc2s1 (stereo not drawn) [Example 7, 2-{6-[4-(azetidine-1-carbonyl)phenyl]-1,3-benzothiazol-2-yl}-2-cyano-N-[(cyclopropyl-carbamoyl)methyl] acetamide]
5 nM | N#CC(C(=O)NCC(=O)NC1CC1)c1nc2ccc(-c3ccc4c(c3)CNC4=O)cc2s1 (stereo not drawn) [Example 8, 2-cyano-N-[(cyclopropyl-carbamoyl)methyl]-2-[6-(1-oxo-2,3-dihydro-1H-isoindol-5-yl)-1,3-benzothiazol-2-yl]acetamide]
31 nM | N#CC(C(=O)NCC(=O)NC1CC1)c1nc2ncc(-c3ccc(C(N)=O)cc3)cc2s1 (stereo not drawn) [Example 24, 4-{2-[cyano({[(cyclopropyl-carbamoyl)methyl]carbamoyl})methyl]-[1,3]thiazolo[4,5-b]pyridin-6-yl}benzamide]
22 nM | N#CC(C(=O)NCC(=O)NC1CC1)c1nc2ncc(-c3cccc(C(=O)N4CCOCC4)c3)cc2s1 (stereo not drawn) [Example 22, 2-cyano-N-[(cyclopropyl-carbamoyl)methyl]-2-{6-[3-(morpholine-4-carbonyl)phenyl]-[1,3]thiazolo[4,5-b]pyridin-2-yl}acetamide]
11 nM | N#CC(C(=O)NCC(=O)NC1CC1)c1nc2ccc(-c3ccc(C(=O)N4CCCCC4)cc3)cc2s1 (stereo not drawn) [Example 13, 2-cyano-N-[(cyclopropyl-carbamoyl)methyl]-2-{6-[4-(piperidine-1-carbonyl)phenyl]-1,3-benzothiazol-2-yl} acetamide]
1.4 nM | N#CC(C(=O)NCC(=O)NC1CC1)c1nc2ccc(-c3ccc(NC(=O)OCc4ccccc4)cc3)cc2s1 (stereo not drawn) [Example 15, benzyl N-(4-{2-[cyano ({[(cyclopropyl-carbamoyl)methyl]carbamoyl})methyl]-1,3-benzothiazol-6-yl}phenyl) carbamate]
13 nM | N#CC(C(=O)NCC(=O)NC1CC1)c1nc2ccc(-c3ccccc3)cc2s1 (stereo not drawn) [Example 1, 2-cyano-N-(2-(cyclopropylamino)-2-oxoethyl)-2-(6-phenylbenzo[d]thiazol-2-yl)acetamide]
21 nM | N#CC(C(=O)NCC(=O)NC1CC1)c1nc2cc(-c3cccc(C(N)=O)c3)c(F)cc2s1 (stereo not drawn) [Example 26, 3-{2-[cyano({[(cyclopropylcarbamoyl)methyl]carbamoyl})methyl]-6-fluoro-1,3-benzothiazol-5-yl}benzamide]
13 nM | N#CC(C(=O)NCC(=O)NC1CC1)c1nc2ncc(-c3ccccc3)cc2s1 (stereo not drawn) [Example 21, 2-cyano-N-(2-(cyclopropylamino)-2-oxoethyl)-2-(6-phenylthiazolo[4,5-b]pyridin-2-yl)acetamide]
26 nM | N#CC(C(=O)NCC(=O)NC1CC1)c1nc2ccc(-c3ccc(C(N)=O)cc3)cc2s1 (stereo not drawn) [Example 11, 4-{2-[cyano ({[(cyclopropyl-carbamoyl)methyl]carbamoyl})methyl]-1,3-benzothiazol-6-yl} benzamide]
16 nM | N#CC(C(=O)NCC(=O)NC1CC1)c1nc2ccc(-c3cccc(C(=O)N4CCCCC4)c3)cc2s1 (stereo not drawn) [Example 5, 2-cyano-N-[(cyclopropyl-carbamoyl)methyl]-2-{6-[3-(piperidine-1-carbonyl)phenyl]-1,3-benzothiazol-2-yl}acetamide]
1 nM | CN1CCN(C(=O)c2cccc(-c3cc4nc(C(C#N)C(=O)NCC(=O)NC5CC5)sc4cc3F)c2)CC1 (stereo not drawn) [Example 29, 2-cyano-N-[(cyclopropyl-carbamoyl)methyl]-2-{6-fluoro-5-[3-(4-methylpiperazine-1-carbonyl)phenyl]-1,3-benzothiazol-2-yl}acetamide]
13 nM | N#CC(C(=O)NCC(=O)NC1CC1)c1nc2cc(-c3ccccc3)c(F)cc2s1 (stereo not drawn) [Example 27, 2-cyano-N-[(cyclopropyl-carbamoyl)methyl]-2-(6-fluoro-5-phenyl-1,3-benzothiazol-2-yl)acetamide]
< 1 nM | N#CC(C(=O)NCC(=O)NC1CC1)c1nc2cc(-c3ccc(C(N)=O)cc3)c(F)cc2s1 (stereo not drawn) [Example 28, 4-{2-[cyano ({[(cyclopropyl-carbamoyl)methyl]carbamoyl})methyl]-6-fluoro-1,3-benzothiazol-5-yl}benzamide]
